Series [1] addresses T1, full length heterotrimeric human RPA (Homo sapiens, UniProt P27694).
T1 construct: Full length, heterotrimeric human RPA (fl-RPA) and DBD-A/B constructs were expressed and purified; made in house
The experiment in a line: Electrophoretic mobility shift assay (EMSA), binding of full length human RPA to ssDNA. Conditions: for IC50: full length human RPA binding to DNA, mean ± SD of minimum triplicate experiments. How it is done: (§1) Full length, heterotrimeric human RPA (fl-RPA) and DBD-A/B constructs were expressed and purified according to previously described protocol. The DBD-A/B construct was expressed as a His6-RPA181-422 fusion protein. E. coli BL21 (DE3) cells in log growth were induced for 3 h with 0.5 mM IPTG at 37° C. The cells were lysed via sonication in buffer containing 20 mM Tris pH 7.5, 500 mM NaCl, 10 mM b-mercaptoethanol, supplemented with 25 μg/mL lysozyme, 1 μg/mL leupeptin, 1 μg/mL pepstatin and 0.5 mM PMSF. The lysate was applied to a 20 mL phosphocellulose column equilibrated in the same buffer and the flow-through material collected, brought to 5 mM Imidazole and loaded onto a 2 ml Ni-NTA column. The column was washed and proteins eluted on with a gradient from 50 mM to 500 mM imidazole. Fractions were assessed by EMSA and SDS-PAGE and DBD-A/B containing fraction were pool, dialyzed against buffer containing 50 mM HEPES pH 7.0, 500 mM NaCl and 1 mM DTT and stored at −80° C.
(§2) EMSAs were carried out using previously described procedure with the following modification. EMSA reactions (20 μL) were performed with 50 nM fl-RPA and 2.5 nM 5′ [^32P]-labeled 34-base DNA in buffer containing 20 mM HEPES (pH 7.8), 1 mM DTT, 0.001% NP-40, 50 mM NaCl. Chemical compounds were suspended in DMSO and DMSO concentration in the reaction mixture was kept constant at 2% or below 5%. RPA was incubated with inhibitor or DMSO control in reaction buffer for 30 min before the addition of DNA. Reactions were incubated for 5 min at room temperature and products separated via 6% native polyacrylamide gel electrophoresis. The bound and unbound fractions were then quantified by phosphor-imager analysis using ImageQuant software (Molecular Dynamics, CA) and IC50 values calculated by non-linear regression using SigmPlot (Sysat). For EMSA reactions with RPA DBD-A/B, 150 nM DBD-A/B was used, and electrophoresis was performed at 4° C. All other conditions were identical to those described for the full-length RPA.
Purified full length heterotrimeric human RPA protein was used to screen a series of analogs in an electrophoretic mobility shift assay (EMSA) measuring direct binding to a ss-DNA substrate. Quantification of the EMSA data and additional concentration dependent analysis to measure IC50 values of newly synthesized analogs provided potential insight into the structure-activity relationships (Table 1 and 2). […] Fluorine and trifluoromethyl substituents were included in pyridinyl compounds 28-29.
For orientation: In EMSA bound probe runs differently from free probe, usually more slowly.

Series [2] deals with T2, RPA DBD-A/B construct (His6-RPA181-422 of RPA70) (Homo sapiens, UniProt P27694).
T2 construct: The DBD-A/B construct was expressed as a His6-RPA181-422 fusion protein; His6 (N); made in house; host or cells: E. coli BL21 (DE3)
T2 sequence (P27694 181-422): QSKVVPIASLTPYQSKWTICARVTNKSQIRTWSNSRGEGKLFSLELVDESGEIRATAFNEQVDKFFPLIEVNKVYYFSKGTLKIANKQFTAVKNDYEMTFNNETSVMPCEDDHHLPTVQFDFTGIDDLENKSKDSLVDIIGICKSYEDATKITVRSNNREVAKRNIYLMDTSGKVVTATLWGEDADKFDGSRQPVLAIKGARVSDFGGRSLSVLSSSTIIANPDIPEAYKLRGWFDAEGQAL
The experiment in a line: EMSA, binding of RPA DBD-A/B construct to DNA. The following applies: mean ± SD, read-out: RPAA/B IC50. How it is done:
as §1, §2
These domains are compact modular domains populated with hydrophobic and basic DNA binding amino acid residues and have great potential to influence binding of the compounds to the RPA70 subunit. RPA DBD-A/B construct was purified via Ni-affinity chromatography. The activity of compounds 23-27 was evaluated on purified DBD-A/B construct using EMSA.

Series [3] deals with sonicated salmon sperm DNA. The experiment in a line: Fluorescent intercalator displacement (FID) assay, SYBR-Green. Format: binding. The following applies: 25 mM MOPS pH 6.5. How it is done: The analysis of compound interactions with DNA was determined by inhibition of SYBR-Green intercalation into DNA as we have previously described. Briefly, reactions were performed in 25 mM MOPS (pH 6.5) containing sonicated salmon sperm DNA (8.29 ng/μL), SYBR-Green, and the indicated concentrations of RPA inhibitors. Reactions were conducted in black 96-well plates. Doxorubicin, a known noncovalent DNA binding chemotherapeutic, was used as a positive control. Fluorescence was measured using a BioTek® Synergy™ H1 hybrid multi-mode microplate reader with an excitation wavelength of 485 nm, emission wavelength of 528 nm, and a read height of 7 mm. Data were collected using BioTek® Gen5™ reader software. Reactions were incubated a maximum of 5 min before measurements were collected.
(§3) In order to probe the potential role of DNA intercalation as a mechanism for RPA inhibition, compounds 19, 23, 26, 27, 43 and 45 were analyzed using FID assay along with doxorubicin (Dox) as a positive control. […] In addition, direct binding of 9 derivatives to the target protein was assessed using a differential scan fluorimetry (DSF) assay. This assay assesses the melting profile of a protein at increasing temperatures via fluorescent dye binding. The direct interaction of a small molecule to the target protein can either increase or decrease the melting temperature (Tm) of the target depending on the specific protein and their interactions. […] Heparin sulfate, a known RPA interacting molecule often used in the purification of the protein was used as a control. […] (data not shown). […] (FIG. 1B).

Series [4] in a line: Aqueous solubility in unbuffered water. Format: physicochemical. The following applies: 43, 44, 45, 46, 47 vs 9, 16, 26, 28, 29 respectively. How it is done: Aqueous solubility was determined by suspending compound in un-buffered water with stirring. Insoluble material was removed by sedimentation or filtration and soluble compound quantified by absorbance spectroscopy and LC/MS. pH dependence was determined by suspending compound in 10 mM citrate buffer at pH 4.0 or 10 mM phosphate […] as described above in the description.
The morpholine ring is commonly introduced into solvent exposed regions as a privileged solubilizing group to improve solubility or pharmacokinetic properties including metabolic stability of a prospective drug scaffold which is exemplified by many FDA approved drugs. Modifications on Ring A had less of an effect than the morpholino modifications at the alkyl carboxylic acid side chain. To determine the effect of pH on solubility, we prepared solution at 1 mM in citrate buffer at pH 4, phosphate buffer at pH 7 and carbonate buffer at pH 9.5.

Series [5] concerns the target T3, RPA-AB construct (RPA70 AB domain) (Homo sapiens, UniProt P27694).
T3 construct: The DBD-A/B construct was expressed as a His6-RPA181-422 fusion protein; His6 (N); made in house; host or cells: E. coli BL21 (DE3)
Briefly: Differential scanning fluorimetry (DSF). Format: binding. The protocol:
as §3
The interaction of compound 43 with RPA-AB constructs was performed by differential scanning fluorimetry using GloMelt™ Dye (Biotum). […] Reactions were run in an ABI 7500 real time PCR machine with temperature increasing from 25° C. to 99° C. at a 2% ramp (˜40 minutes) and fluorescence of the reporter was measured on the SYBR® Green setting. […] Data was uploaded to TSA-CRAFT software and Tm calculated as described by Lee et al. Heparin was employed as a positive control of binding to the AB-box of RPA.
A general note: In DSF a fluorescence change marks the thermal transition of the protein.

Here are results for eight molecules from patent US12486246B2, “Replication protein A (RPA)-DNA interaction inhibitors” (THE TRUSTEES OF INDIANA UNIVERSITY, priority 2019, dated 2025).

T1 sequence (P27694 whole entry): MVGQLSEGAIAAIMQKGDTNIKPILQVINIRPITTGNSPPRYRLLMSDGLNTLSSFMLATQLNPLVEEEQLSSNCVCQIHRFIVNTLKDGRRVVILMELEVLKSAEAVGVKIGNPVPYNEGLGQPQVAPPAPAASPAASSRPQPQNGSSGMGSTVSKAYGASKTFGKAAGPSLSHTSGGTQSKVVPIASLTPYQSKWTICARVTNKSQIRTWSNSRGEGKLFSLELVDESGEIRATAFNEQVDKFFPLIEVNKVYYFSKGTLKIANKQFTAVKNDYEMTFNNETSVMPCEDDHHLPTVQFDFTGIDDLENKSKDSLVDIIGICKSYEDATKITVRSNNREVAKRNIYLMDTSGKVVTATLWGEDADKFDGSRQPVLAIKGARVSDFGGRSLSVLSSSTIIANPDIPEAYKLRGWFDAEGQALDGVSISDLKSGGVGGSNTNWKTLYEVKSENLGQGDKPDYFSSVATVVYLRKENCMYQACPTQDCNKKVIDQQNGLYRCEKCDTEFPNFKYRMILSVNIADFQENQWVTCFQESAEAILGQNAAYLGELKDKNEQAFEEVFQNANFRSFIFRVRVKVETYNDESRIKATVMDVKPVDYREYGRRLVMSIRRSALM
T1 sequence (P15927 whole entry partner): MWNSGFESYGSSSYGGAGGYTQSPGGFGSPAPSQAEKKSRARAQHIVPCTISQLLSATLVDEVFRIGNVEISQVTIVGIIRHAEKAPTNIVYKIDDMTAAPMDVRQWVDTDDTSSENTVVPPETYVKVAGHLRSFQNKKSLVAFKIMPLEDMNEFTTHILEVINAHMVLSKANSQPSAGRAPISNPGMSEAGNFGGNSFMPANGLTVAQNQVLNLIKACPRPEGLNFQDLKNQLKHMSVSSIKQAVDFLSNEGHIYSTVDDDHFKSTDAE
T1 sequence (P35244 whole entry partner): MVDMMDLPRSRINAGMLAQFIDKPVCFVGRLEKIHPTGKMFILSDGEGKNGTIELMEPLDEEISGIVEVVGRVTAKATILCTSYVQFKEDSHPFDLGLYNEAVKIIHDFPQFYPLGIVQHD
T3 sequence (P27694 181-422): as the sequence (P27694 181-422) above

With `CCOc1ccc2cc(C3CC(c4ccc(-c5ccc(Br)nc5)cc4)=NN3C(=O)CCCC(=O)O)c(Cl)nc2c1` (stereo not shown) [Compound 27, 5-(3-(4-(6-Bromopyridin-3-yl)phenyl)-5-(2-chloro-7-ethoxyquinolin-3-yl)-4,5-dihydro-1H-pyrazol-1-yl)-5-oxopentanoic acid], the IC50 stood at 1.01 ± 0.6 µM in series [1] and 3.32 ± 0.016 µM in series [2]. In addition, the “DNA binding activity (displacement of SYBR-Green intercalator)” value (shortened to “DNA binding activity”) in series [3] is “No significant DNA binding activity”.
As to `CCOc1ccc2cc(C3CC(c4ccc(-c5ccc(Cl)nc5)cc4)=NN3C(=O)CCCC(=O)NCCCN3CCOCC3)c(Cl)nc2c1` (stereo not shown) [Compound 45, 5-(5-(2-Chloro-7-ethoxyquinolin-3-yl)-3-(4-(6-chloropyridin-3-yl)phenyl)-4,5-dihydro-1H-pyrazol-1-yl)-N-(3-morpholinopropyl)-5-oxopentanamide], the IC50 in series [1] came to 4.06 ± 0.56 µM. Moreover, the “aqueous solubility compared to carboxylic acid counterpart (in words)” value in series [4] is on record as “increased solubility”. For the same molecule, the “DNA binding activity” value in series [3] is “No significant DNA binding activity”.
Take `CCOc1ccc2cc(C3CC(c4ccc(-c5ccco5)cc4)=NN3C(=O)CCCC(=O)O)c(Cl)nc2c1` (stereo not shown) [Compound 23, 5-(5-(2-Chloro-7-ethoxyquinolin-3-yl)-3-(4-(furan-2-yl)phenyl)-4,5-dihydro-1H-pyrazol-1-yl)-5-oxopentanoic acid]: the “fold increase in activity compared to compound 22” value in series [1] (full length RPA) is reported as around 3.2 fold. Besides, the values for the IC50 in series [1] and in series [2] were 2.1 ± 0.48 µM and 3.3 ± 0.07 µM, respectively. For the same molecule, the “DNA binding activity” value in series [3] is on record as “No significant DNA binding activity”.
Turning to `CCOc1ccc2cc(C3CC(c4ccc(-c5ccc(N6CCOCC6)cc5)cc4)=NN3C(=O)CCCC(=O)O)c(Cl)nc2c1` (stereo not shown) [Compound 25, 5-(5-(2-Chloro-7-ethoxyquinolin-3-yl)-3-(4′-morpholino-[1,1′-biphenyl]-4-yl)-4,5-dihydro-1H-pyrazol-1-yl)-5-oxopentanoic acid], the IC50 in series [1] amounted to 3.14 ± 0.23 µM; in series [2], 16.4 ± 2.09 µM.
On to heparin [reference compound], for which, in series [5], the “decrease in Tm” value was determined as 1.2 °C.
Turning to `CCOc1ccc2cc(C3CC(c4ccc(-c5ccc(F)nc5)cc4)=NN3C(=O)CCCC(=O)NCCCN3CCOCC3)c(Cl)nc2c1` (stereo not shown) [Compound 46, 5-(5-(2-Chloro-7-ethoxyquinolin-3-yl)-3-(4-(6-fluoropyridin-3-yl)phenyl)-4,5-dihydro-1H-pyrazol-1-yl)-N-(3-morpholinopropyl)-5-oxopentanamide], the IC50 in series [1] turned out to be 2.29 ± 0.31 µM. Also, in series [4], the “aqueous solubility compared to carboxylic acid counterpart (in words)” value is recorded as “increased solubility”.
For the molecule `CCOc1ccc2cc(C3CC(c4ccc(-c5cnoc5)cc4)=NN3C(=O)CCCC(=O)O)c(Cl)nc2c1` (stereo not shown) [Compound 24, 5-(5-(2-Chloro-7-ethoxyquinolin-3-yl)-3-(4-(isoxazol-4-yl)phenyl)-4,5-dihydro-1H-pyrazol-1-yl)-5-oxopentanoic acid], the IC50 in series [1] is 1.71 ± 0.28 µM; in series [2] it was 4.03 ± 0.28 µM.
`CCOc1ccc2cc(C3CC(c4ccc(Br)cc4)=NN3C(=O)CCCC(=O)NCCCN3CCOCC3)c(Cl)nc2c1` (stereo not shown) [Compound 44, 5-(3-(4-Bromophenyl)-5-(2-chloro-7-ethoxyquinolin-3-yl)-4,5-dihydro-1H-pyrazol-1-yl)-N-(3-morpholinopropyl)-5-oxopentanamide]: the IC50 in series [1] amounted to 10 ± 1.46 µM. Besides, the “aqueous solubility compared to carboxylic acid counterpart (in words)” value in series [4] is “increased solubility”.
